Results: patent US6599499B1, “Uses of diterpenoid triepoxides as an anti-proliferative agent” (priority 1999, dated 2003)

Experiments:
p53 null (−/−) MEFs = experiment: Cell viability of p53-/- mouse embryonic fibroblasts; conditions: Fibroblast, read-out: reduction of cell viability
Experimental: (§1) Cell culture and luciferase assay. A549 (non-small cell lung cancer), HT-1080 (fibrosarcoma), and MCF-7 (breast cancer) cells were cultured in the appropriate media with 10% FCS supplemented with L-glutamine, penicillin, and streptomycin. p53 wild-type (+/+) and null (−/−) Mouse Embryonic Fibroblasts (MEFs) transfected with the E1A/Ras were grown in DMEM containing 15% FCS supplemented with L-glutamine, penicillin, and streptomycin. Transfections were done on MCF-7 cells using the lipofectamine Plus reagent. At 24 hours after transfection, MCF-7 cells were left untreated or treated with triptolide (20 ng/ml) or doxorubicin (100 nM) for 4, 8, and 16 hours and cells were collected for luciferase assay. Luciferase activity was measured in samples with equal protein concentration with a Luminometer (Analytical Luminescence Laboratory, San Diego, Calif.).
(§2) Cell viability assay. Cell viability was measured by an 3-(4,5-dimethylthiazol-2-yl)-2,5-diphenyltetrazolium bromide (MTT) assay as described above. Untreated or cells treated with triptolide and/or doxorubicin were harvested at the indicated times followed by the addition of MTT to the cells in a 96-well plate. Cells were solubilized with […] acidified with 0.1N HCl. The 96-plate was read at a wavelength of 590 nm on an iEMS Labsystems plate reader.

[1] = test system: MCF-7 (breast cancer) cells; experiment: cells; conditions: for Percent survival: MTT after 48 h
Experimental: as §1, §2

p21 mRNA = p21 mRNA by Northern blot in HT1080 cells; assay type: cell-based, human; conditions: triptolide 20 ng/ml
Experimental: Northern Blot Analysis. RNA was prepared from HT1080 cells using RNeasy Mini Kit from Qiagen Inc. (Valencia, Calif.). cDNAs for Northern blot analysis for p21 and p53 were prepared using RT-PCR with […] of total RNA. The following primer pairs were used: p53, (SEQ ID NO:11) 5′-[…]-3′ and (SEQ ID NO:12) 5′-[…]-3′; p21, (SEQ ID NO:13) 5′-[…]-3′ and (SEQ ID NO:14) 5′-[…]-3′; and glyceraldehyde-3-phosphate dehydrogenase, (SEQ ID NO:15) 5′-[…]-3′ and 5′-(SEQ ID NO:16) […]-3′.

Dx5 cells = conditions: cited from earlier work

Row | SMILES | cytotoxicity at 0.005 µg/mL (p53 null (−/−) MEFs) | cytotoxicity at 0.01 µg/mL (p53 null (−/−) MEFs) | cytotoxicity at 0.02 µg/mL ([1]; Homo sapiens, MCF7, read-out: decrease in cell viability, MCF-7, triptolide 20 ng/ml) | Percent survival ([1]; MCF-7, Triptolide 5 ng/ml) | Percent survival ([1]; MCF-7, Triptolide 20 ng/ml) | effect on doxorubicin-mediated induction of p21 mRNA (p21 mRNA) | fold more resistant than the MES-SA parent cell line (Dx5 cells)
1 | CC(C)[C@]12O[C@H]1[C@@H]1O[C@]13[C@]1(O[C@H]1C[C@H]1C4=C(CC[C@@]13C)C(=O)OC4)[C@@H]2O [PG490, triptolide] | 15% | 50% | 70% | 63.9 ± 8.1% | 30.5 ± 7.6% | completely blocked | –
2 | COc1cccc2c1C(=O)c1c(O)c3c(c(O)c1C2=O)C[C@@](O)(C(=O)CO)C[C@@H]3O[C@H]1C[C@H](N)[C@H](O)[C@H](C)O1 [doxorubicin, reference compound] | – | – | – | – | – | – | 100 fold
